Assay results reported in ChEMBL document CHEMBL1201862, “PubChem BioAssay data set” (2004).
The source made the active and inactive calls.

Key:
[1] = biological target: T1, Adenosylmethionine-8-amino-7-oxononanoate aminotransferase (Mycobacterium tuberculosis, UniProt P9WQ81); assay: Mycobacterium tuberculosis BioA enzyme inhibitor Measured in Biochemical System Using Plate Reader - 2163-02_Inhibitor_Dose_CherryPick_Activity.; assay type: functional, Mycobacterium tuberculosis UT205
T1 sequence (P9WQ81 whole entry): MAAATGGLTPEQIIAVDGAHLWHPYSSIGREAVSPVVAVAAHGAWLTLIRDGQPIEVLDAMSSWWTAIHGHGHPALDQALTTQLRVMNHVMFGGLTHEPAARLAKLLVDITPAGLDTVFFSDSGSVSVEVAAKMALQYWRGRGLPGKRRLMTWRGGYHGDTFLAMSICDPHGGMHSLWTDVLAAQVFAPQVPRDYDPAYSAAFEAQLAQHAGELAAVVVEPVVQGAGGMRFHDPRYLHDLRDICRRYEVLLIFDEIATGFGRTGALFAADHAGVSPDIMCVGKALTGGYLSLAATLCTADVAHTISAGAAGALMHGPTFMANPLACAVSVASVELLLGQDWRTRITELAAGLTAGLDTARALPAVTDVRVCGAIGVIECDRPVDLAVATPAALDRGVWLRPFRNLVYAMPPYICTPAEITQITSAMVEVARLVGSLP

[2] = biological target: T2, Cytochrome P450 1A2 (Homo sapiens, UniProt P05177);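 further: PubChem cytochrome P450 panel assay, CYP1A2 panel member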
T2 sequence (P05177 whole entry): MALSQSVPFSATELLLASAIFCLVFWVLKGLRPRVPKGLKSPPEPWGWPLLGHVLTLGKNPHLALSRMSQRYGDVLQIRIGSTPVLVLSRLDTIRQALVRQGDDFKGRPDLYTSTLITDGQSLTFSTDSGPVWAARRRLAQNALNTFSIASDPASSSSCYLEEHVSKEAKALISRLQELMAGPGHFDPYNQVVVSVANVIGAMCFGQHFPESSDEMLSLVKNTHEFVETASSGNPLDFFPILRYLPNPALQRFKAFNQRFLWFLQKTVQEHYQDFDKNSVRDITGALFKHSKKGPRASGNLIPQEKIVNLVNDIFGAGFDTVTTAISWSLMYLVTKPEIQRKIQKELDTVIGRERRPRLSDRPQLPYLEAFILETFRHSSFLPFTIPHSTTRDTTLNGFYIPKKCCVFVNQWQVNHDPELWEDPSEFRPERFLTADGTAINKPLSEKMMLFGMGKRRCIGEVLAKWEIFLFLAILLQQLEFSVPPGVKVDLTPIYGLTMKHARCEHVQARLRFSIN

[3] = biological target: T3, Aminopeptidase N (Plasmodium falciparum FcB1/Columbia, UniProt O96935); assay: P. falciparum M1AAP inhibitors, biochemical, fluorogenic H-Leu-NHMec substrate, 1536-well (AID 1445); parameters: species or system Plasmodium falciparum 3D7, 3D7
T3 sequence (O96935 whole entry): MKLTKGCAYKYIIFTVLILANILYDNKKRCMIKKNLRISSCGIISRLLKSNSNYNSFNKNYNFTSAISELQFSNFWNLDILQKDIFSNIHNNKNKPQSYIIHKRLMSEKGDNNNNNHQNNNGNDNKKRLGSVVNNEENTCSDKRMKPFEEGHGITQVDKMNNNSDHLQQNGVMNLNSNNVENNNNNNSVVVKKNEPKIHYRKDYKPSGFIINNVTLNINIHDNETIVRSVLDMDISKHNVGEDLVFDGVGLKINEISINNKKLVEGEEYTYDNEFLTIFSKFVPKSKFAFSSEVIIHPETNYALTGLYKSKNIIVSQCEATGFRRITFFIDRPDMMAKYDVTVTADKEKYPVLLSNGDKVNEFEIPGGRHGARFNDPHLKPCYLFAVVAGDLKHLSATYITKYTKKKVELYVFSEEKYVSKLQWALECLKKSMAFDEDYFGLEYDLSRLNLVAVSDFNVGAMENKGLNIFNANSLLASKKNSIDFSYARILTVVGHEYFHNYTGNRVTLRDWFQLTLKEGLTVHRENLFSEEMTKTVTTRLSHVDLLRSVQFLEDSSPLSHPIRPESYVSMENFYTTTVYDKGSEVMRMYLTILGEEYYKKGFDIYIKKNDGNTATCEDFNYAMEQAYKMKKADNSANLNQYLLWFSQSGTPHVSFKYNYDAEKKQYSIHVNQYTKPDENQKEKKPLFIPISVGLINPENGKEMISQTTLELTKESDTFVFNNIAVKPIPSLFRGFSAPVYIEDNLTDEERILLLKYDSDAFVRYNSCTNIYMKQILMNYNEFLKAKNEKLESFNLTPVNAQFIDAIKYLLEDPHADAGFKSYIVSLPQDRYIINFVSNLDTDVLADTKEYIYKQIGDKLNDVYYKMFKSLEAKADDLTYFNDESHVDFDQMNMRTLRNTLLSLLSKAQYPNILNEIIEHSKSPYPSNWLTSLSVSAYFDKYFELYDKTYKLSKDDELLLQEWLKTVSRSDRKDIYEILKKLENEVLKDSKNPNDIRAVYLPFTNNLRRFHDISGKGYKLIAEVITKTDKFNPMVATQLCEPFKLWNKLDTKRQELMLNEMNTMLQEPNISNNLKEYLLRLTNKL

[4] = test system: Streptococcus sp. 'group A'; assay: growth inhibition of control SK(-) GAS strain, dose response, counter-screen for streptokinase expression inhibitor project, luminescence, kanamycin, BacTiterGlo, confirmation (AID 1900); assay type: functional, organism-based
[5] = biological target: T4, Streptokinase A (Streptococcus pyogenes serotype M1, UniProt P10520); assay: S. pyogenes streptokinase expression inhibitors, potency, dose response, plasminogen activation absorbance, OD405 (AID 1914); assay type: functional, Streptococcus pyogenes M1 GAS;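 further: secreted streptokinase activity via plasminogen activation per viability signal from cell pellet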
T4 sequence (P10520 whole entry): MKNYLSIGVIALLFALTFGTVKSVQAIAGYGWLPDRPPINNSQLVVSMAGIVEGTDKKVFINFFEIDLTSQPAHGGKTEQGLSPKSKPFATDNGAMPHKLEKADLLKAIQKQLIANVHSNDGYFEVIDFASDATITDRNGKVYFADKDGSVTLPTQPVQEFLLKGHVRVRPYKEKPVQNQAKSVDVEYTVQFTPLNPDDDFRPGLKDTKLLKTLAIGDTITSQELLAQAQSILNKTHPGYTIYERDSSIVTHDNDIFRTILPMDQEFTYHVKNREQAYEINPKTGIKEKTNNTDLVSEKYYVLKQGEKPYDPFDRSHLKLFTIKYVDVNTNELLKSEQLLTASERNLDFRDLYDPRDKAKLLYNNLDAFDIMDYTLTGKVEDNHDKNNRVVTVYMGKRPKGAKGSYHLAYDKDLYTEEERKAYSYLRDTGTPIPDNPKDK

[6] = test system: Streptococcus; assay: Group A Streptococcus viability loss, dose response, counter-screen for streptokinase expression inhibitor project, luminescence, BacTiterGlo (AID 1915); assay type: functional, organism-based;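 further: potency for reduction of bacterial viability or growth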
[7] = biological target: T5, Short transient receptor potential channel 4 (Mus musculus, UniProt Q9QUQ5); assay: mouse TRPC4 channel inhibitors, dose response, cell-based, HEK293 TRPC4/mu-opioid, Fluo-4 calcium (AID 434942); assay type: functional;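 further: potency of inhibitors blocking the TRPC4 calcium response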
T5 sequence (Q9QUQ5 whole entry): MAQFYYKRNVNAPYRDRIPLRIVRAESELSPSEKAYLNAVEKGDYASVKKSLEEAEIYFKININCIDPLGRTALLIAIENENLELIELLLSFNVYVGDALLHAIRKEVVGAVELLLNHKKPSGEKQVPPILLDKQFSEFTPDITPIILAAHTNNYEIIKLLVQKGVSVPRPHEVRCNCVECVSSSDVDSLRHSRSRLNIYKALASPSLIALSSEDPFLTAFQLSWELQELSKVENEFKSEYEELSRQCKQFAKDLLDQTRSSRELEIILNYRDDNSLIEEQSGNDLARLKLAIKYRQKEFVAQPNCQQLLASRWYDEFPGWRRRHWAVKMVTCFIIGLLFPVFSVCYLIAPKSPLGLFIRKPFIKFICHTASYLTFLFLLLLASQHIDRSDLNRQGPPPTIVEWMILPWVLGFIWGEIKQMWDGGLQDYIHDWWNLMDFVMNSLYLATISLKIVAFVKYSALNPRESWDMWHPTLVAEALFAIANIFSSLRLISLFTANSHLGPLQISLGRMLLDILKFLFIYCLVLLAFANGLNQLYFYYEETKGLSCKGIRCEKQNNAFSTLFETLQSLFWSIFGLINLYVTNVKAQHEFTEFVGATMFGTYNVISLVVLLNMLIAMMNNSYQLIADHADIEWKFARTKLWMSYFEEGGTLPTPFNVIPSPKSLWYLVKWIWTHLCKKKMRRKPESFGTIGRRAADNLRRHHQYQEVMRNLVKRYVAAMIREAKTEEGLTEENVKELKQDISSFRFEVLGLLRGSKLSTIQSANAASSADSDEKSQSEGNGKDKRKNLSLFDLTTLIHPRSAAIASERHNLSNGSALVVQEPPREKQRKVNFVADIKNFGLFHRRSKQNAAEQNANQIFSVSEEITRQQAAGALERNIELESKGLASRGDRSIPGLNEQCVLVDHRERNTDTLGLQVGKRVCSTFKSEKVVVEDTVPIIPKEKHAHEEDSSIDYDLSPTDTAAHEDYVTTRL

[8] = biological target: T6, Long-chain-fatty-acid--AMP ligase FadD28 (Mycobacterium tuberculosis, UniProt P9WQ59); assay: Fluorescence polarization aasay to screen for inhibitors that compete for the binding of FadD28 to a bisubstrate Measured in Biochemical System Using Plate Reader - 2147-01_Inhibitor_Dose_CherryPick_Activity.; assay type: functional, Mycobacterium tuberculosis H37Rv
T6 sequence (P9WQ59 whole entry): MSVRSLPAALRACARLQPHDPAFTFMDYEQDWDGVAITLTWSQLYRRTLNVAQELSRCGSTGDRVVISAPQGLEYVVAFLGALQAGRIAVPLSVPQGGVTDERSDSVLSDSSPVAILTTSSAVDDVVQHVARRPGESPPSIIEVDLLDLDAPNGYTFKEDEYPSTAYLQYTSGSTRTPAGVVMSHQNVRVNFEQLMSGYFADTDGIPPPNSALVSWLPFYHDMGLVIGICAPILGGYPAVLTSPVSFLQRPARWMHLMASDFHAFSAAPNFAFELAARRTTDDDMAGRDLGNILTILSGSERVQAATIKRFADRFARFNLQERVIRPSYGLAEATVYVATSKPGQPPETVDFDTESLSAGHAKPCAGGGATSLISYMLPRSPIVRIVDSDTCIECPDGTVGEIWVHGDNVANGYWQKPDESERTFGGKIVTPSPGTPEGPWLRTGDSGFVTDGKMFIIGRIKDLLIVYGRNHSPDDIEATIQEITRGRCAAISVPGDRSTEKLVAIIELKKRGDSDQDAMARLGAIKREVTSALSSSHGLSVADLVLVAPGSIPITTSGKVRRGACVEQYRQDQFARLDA

[9] = biological target: Genome polyprotein (dengue virus type 2, UniProt P29990); assay: Dengue-2 NS5 methyltransferase inhibitors, primary screen, biochemical, confirmation dose response (AID 588689); assay type: functional
Sequence of Genome polyprotein (P29990 2492-3391 limits assumed): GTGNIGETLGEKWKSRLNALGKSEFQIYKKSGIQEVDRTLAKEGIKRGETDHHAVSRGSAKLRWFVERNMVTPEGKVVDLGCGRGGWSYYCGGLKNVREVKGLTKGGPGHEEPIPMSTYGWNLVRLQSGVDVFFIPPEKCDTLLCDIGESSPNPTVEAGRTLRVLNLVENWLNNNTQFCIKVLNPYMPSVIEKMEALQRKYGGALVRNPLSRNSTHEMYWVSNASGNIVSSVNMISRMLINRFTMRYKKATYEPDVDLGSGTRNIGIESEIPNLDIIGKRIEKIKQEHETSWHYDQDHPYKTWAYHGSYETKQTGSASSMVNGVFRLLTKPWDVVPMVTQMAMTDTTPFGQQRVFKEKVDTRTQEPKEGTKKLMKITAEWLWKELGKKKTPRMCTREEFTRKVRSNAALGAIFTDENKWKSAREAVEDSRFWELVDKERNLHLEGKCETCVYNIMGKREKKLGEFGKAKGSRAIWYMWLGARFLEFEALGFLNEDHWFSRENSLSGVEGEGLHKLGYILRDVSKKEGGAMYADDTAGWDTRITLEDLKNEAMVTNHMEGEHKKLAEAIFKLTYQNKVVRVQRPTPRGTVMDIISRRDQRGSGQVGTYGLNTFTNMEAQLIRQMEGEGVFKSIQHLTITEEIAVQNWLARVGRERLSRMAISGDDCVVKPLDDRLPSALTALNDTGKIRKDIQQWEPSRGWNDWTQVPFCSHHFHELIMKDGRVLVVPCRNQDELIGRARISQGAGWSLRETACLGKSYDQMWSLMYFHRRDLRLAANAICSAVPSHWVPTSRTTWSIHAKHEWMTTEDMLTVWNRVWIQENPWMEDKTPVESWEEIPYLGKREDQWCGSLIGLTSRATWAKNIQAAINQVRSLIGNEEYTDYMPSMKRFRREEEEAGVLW

[10] = cells; assay type: functional, cell-based
[11] = biological target: T7, Nuclear receptor subfamily 0 group B member 1 (Homo sapiens, UniProt P51843); assay type: functional, cell-based;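 further: HEK293T cells transfected with SF-1 and DAX-1 plus StAR promoter luciferase reporter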
T7 sequence (P51843 whole entry): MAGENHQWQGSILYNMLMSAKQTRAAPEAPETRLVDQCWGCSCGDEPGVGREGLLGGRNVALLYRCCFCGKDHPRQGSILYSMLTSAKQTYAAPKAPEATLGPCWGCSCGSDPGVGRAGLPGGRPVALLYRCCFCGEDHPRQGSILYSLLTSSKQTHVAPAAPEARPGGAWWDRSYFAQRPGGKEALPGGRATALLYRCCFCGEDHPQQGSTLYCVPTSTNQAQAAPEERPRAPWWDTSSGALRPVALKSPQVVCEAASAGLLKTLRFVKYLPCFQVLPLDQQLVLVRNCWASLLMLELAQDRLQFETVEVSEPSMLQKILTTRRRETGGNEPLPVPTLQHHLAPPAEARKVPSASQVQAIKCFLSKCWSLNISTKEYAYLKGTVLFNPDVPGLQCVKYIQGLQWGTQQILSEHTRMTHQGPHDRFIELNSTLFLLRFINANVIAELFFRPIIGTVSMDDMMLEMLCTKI

[12] = biological target: Large T antigen (Simian virus 40, UniProt P03070); assay type: functional, Betapolyomavirus macacae;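 further: Confirmatory-stage PubChem screen for compounds that inhibit SV40 T antigen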
Sequence of Large T antigen (P03070 whole entry): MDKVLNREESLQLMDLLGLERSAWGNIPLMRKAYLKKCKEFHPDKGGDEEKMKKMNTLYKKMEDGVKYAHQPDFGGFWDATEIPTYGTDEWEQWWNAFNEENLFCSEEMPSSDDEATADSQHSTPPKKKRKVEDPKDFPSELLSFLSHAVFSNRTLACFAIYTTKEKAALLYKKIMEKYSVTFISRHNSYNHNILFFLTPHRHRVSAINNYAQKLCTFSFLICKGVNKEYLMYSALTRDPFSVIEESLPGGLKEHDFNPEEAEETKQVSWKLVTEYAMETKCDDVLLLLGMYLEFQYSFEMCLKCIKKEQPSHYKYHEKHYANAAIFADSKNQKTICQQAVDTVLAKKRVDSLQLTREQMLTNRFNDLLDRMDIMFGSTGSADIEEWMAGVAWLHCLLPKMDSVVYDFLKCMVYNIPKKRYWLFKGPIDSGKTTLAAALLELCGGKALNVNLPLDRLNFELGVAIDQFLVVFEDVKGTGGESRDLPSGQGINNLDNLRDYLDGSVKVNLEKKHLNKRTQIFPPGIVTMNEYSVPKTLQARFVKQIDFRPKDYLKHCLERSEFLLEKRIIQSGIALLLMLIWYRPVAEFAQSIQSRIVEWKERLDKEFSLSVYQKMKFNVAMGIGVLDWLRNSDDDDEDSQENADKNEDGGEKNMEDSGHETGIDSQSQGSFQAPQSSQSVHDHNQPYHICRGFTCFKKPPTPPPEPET

[13] = biological target: T8, Low molecular weight phosphotyrosine protein phosphatase (Homo sapiens, UniProt P24666); assay type: functional; conditions: read-out: IC50_Mean;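 further: Dose-response confirmation assay measuring inhibition of LMPTP enzyme activity by fluorescence intensity read-out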
T8 sequence (P24666 whole entry): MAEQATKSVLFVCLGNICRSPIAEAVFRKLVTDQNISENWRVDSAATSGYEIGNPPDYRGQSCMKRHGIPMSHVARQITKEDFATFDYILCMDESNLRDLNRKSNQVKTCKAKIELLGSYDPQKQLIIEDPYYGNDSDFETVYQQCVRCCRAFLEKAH

CCCc1c(OCCCOc2ccc(OCC(=O)O)cc2)ccc(C(C)=O)c1O
AC50 [1]: 2.54 µM (active) | AC50 [2]: 31.6 µM (inconclusive)

O=C(CSc1nc2c(c(=O)n1-c1ccccc1)SCC2)N1CCOCC1
AC50 [1]: 2.62 µM (active)

Sc1nnc(-c2cc3c(s2)-c2ccccc2CC3)o1
IC50 [3]: 67.4 µM (active) | EC50 [4]: 11.5 µM (active) | EC50 [5]: > 150 µM (not active) | EC50 [6]: 23.3 µM (inconclusive) | EC50 [7]: 0.944 µM (active) | AC50 [8]: 24.9 µM (active)

Cc1ccc(S(=O)(=O)N2[C@@H](c3cccc(Cl)c3)C(C(=O)O)=CC[C@H]2c2cccc(Cl)c2)cc1
IC50 [9]: 48.3 µM (active) | AC50 [8]: 24.9 µM (active)

Cc1ccccc1S(=O)(=O)NCC[C@H]1CC[C@@H](NC(=O)Nc2cccc(F)c2)[C@H](CO)O1
AC50 [1]: 11.3 µM (active)

C=C(c1ccc2[nH]c(NC(=O)OC)nc2c1)c1cccs1
IC50 [10]: > 67.6 µM (inactive) | IC50 [11]: 2.72 µM (active)

CN1c2ccc(-c3cccc(C#N)c3)cc2[C@H]2[C@H](CCN2C(=O)CC2CC2)[C@H]1CO
AC50 [1]: 3.56 µM (active)

Nc1ccc2[nH]c(CCCCCCc3nc4cc(N)ccc4[nH]3)nc2c1
IC50 [12]: 5.49 µM (active) | IC50 [13]: 20.8 µM (inactive)
